Results from ChEMBL document CHEMBL5518238, “Structure-Activity Relationship (SAR) Studies of Novel Monovalent AR/AR-V7 Dual Degraders with Potent Efficacy against Advanced Prostate Cancer” (J Med Chem, 2024).
The source made the active and inactive calls. The calls are words filed in the database; no cut-off is given here.

Experiments:
[1] = Half life in Sprague-Dawley rat at 50 mg/kg, po by LC-MS/MS analysis; format: ADME, organism-based; details: in vivo
[2] = AUC (0 to t) in Sprague-Dawley rat at 50 mg/kg, po by LC-MS/MS analysis; format: ADME, organism-based; details: in vivo
CWR22R [3] = assay: Induction of apoptosis in human 22Rv1 cells assessed as effect on PARP1 level incubated for 24 hrs by Western blot analysis; format: functional, cell-based; details: dose <= 10.0 µM
CWR22R [4] = assay: Downregulation of KLK3 mRNA expression in human 22Rv1 cells incubated for 24 hrs by qRT-PCR analysis; format: functional, cell-based; details: dose 5-10 µM
[5] = Toxicity in NSG mouse xenografted with human 22Rv1 cells assessed as kidney damage t at 30 mg/kg, IG administered once daily for 21 days by H and E staining based analysis; format: organism-based, CWR22R; details: in vivo, po, 504 h, time 21 day
[6] = MRT (0 to t) in Sprague-Dawley rat at 5 mg/kg, iv by LC-MS/MS analysis; format: ADME, organism-based; details: in vivo
[7] = test system: Androgen receptor (Homo sapiens), P10275 [UNDEFINED MUTATION]; assay: Induction of AR-V7 degradation in human 22Rv1 cells at 10 uM incubated for 24 hrs in presence of CHX by Western blot analysis; format: cell-based
CWR22R [8] = assay: Downregulation of ABHD2 mRNA expression in human 22Rv1 cells at 10 uM incubated for 24 hrs by qRT-PCR analysis; format: functional, cell-based
CWR22R [9] = assay: Induction of apoptosis in human 22Rv1 cells at 1 uM incubated for 24 hrs by Annexin V-FITC/PI staining based flow cytometric analysis (reference value: 3.70 %); format: functional
[10] = target: T1, Androgen receptor (Homo sapiens) (UniProt P10275); assay: Induction of AR degradation in human 22Rv1 cells at 10 uM incubated for 24 hrs in presence of CHX by Western blot analysis; format: cell-based
T1 sequence (whole entry): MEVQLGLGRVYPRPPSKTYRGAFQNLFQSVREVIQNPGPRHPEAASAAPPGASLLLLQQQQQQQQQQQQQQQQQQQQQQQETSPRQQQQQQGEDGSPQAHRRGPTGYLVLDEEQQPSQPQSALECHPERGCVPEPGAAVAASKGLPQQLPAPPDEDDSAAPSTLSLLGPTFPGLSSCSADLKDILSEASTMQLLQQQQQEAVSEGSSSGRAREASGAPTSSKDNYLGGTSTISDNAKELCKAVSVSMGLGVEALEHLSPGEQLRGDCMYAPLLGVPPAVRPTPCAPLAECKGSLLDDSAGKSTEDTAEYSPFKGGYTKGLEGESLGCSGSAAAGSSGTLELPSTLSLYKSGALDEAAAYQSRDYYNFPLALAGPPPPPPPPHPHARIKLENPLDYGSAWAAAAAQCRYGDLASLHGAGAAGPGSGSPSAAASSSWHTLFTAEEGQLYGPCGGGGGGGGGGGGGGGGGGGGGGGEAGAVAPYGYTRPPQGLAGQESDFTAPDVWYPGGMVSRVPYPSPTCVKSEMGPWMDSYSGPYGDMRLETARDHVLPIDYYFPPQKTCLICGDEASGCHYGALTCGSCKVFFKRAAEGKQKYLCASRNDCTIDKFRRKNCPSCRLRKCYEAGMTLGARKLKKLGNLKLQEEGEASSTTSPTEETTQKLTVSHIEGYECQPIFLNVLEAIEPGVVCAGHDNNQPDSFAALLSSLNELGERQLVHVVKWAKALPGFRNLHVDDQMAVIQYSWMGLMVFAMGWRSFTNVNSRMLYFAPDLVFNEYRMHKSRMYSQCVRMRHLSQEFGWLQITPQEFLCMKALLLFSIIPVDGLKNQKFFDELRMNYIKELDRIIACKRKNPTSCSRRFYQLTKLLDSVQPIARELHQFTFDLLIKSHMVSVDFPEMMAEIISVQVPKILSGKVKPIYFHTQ

CWR22R [11] = assay: Downregulation of PEG3 mRNA expression in human 22Rv1 cells at 10 uM incubated for 24 hrs by qRT-PCR analysis; format: functional, cell-based
CWR22R [12] = assay: Induction of cell cycle arrest in human 22Rv1 cells assessed as accumulation of cells at G0/G1 phase at 1 uM incubated for 24 hrs by DAPI staining based flow cytometric analysis (reference value: 26.3 %); format: functional
[13] = Toxicity in NSG mouse xenografted with human 22Rv1 cells assessed as lung damage t at 30 mg/kg, IG administered once daily for 21 days by H and E staining based analysis; format: organism-based, CWR22R; details: in vivo, po, 504 h, time 21 day
CWR22R [14] = assay: Downregulation of DHCR24 mRNA expression in human 22Rv1 cells at 10 uM incubated for 24 hrs by qRT-PCR analysis; format: functional, cell-based
[15] = target: T1, Androgen receptor (Homo sapiens); assay: (§1) Induction of AR degradation in human 22Rv1 cells incubated for 24 hrs by Western blot analysis; format: cell-based; details: dose 1-10 µM
Androgen receptor = target: T2, Androgen receptor (Homo sapiens, UniProt P10275); assay: as §1; format: cell-based
T2 sequence (P10275 whole entry): T1 sequence (whole entry)

[16] = Antiproliferative activity against human L02 cells assessed as inhibition of cell growth incubated for 48 hrs by CCK-8 assay; format: toxicity, cell-based
CWR22R [17] = assay: Downregulation of […] mRNA expression in human 22Rv1 cells incubated for 24 hrs by qRT-PCR analysis; format: functional, cell-based; details: dose 5-10 µM
[18] = target: T1, Androgen receptor (Homo sapiens); assay: Binding affinity to AR (unknown origin) assessed as thermal stabilization at 10 uM incubated for 2 hrs by CETSA analysis; format: cell-based; details: 22Rv1
CWR22R [19] = assay: Downregulation of ACSL3 mRNA expression in human 22Rv1 cells at 10 uM incubated for 24 hrs by qRT-PCR analysis; format: functional, cell-based
CWR22R [20] = assay: Downregulation of NKX3-1 mRNA expression in human 22Rv1 cells at 10 uM incubated for 24 hrs by qRT-PCR analysis; format: functional, cell-based
CWR22R [21] = assay: Induction of apoptosis in human 22Rv1 cells at 10 uM incubated for 24 hrs by Annexin V-FITC/PI staining based flow cytometric analysis (reference value: 3.70 %); format: functional
CWR22R [22] = assay: cells; format: functional, cell-based; details: Homo sapiens, 22Rv1, 48 h
Description: Antiproliferative activity against AR/AR-V7 positive human 22Rv1 cells assessed as inhibition of cell growth incubated for 48 hrs by CCK-8 assay

CWR22R [23] = assay: Inhibition of colony formation in human 22Rv1 cells incubated for 2 weeks by crystal violet staining based analysis; format: functional, cell-based; details: dose 0.1-5 µM
CWR22R [24] = assay: Downregulation of NCAPD3 mRNA expression in human 22Rv1 cells at 10 uM incubated for 24 hrs by qRT-PCR analysis; format: functional, cell-based
[25] = target: T1, Androgen receptor (Homo sapiens); assay: Induction of AR degradation in human 22Rv1 cells at 20 uM incubated for 24 hrs in presence of Bortezomib by Western blot analysis; format: cell-based
LNCaP = assay: Antiproliferative activity against human LNCaP cells assessed as inhibition of cell growth incubated for 48 hrs by CCK-8 assay; format: functional, cell-based
CWR22R [26] = assay: Downregulation of AR mRNA expression in human 22Rv1 cells at 5 to 10 uM incubated for 12 hrs by qRT-PCR analysis; format: functional, cell-based; details: dose 5-10 µM
CWR22R [27] = assay: Induction of apoptosis in human 22Rv1 cells assessed as effect on Caspase-3 level incubated for 24 hrs by Western blot analysis; format: functional, cell-based; details: dose <= 10.0 µM
[28] = MRT (0 to infinity) in Sprague-Dawley rat at 5 mg/kg, iv by LC-MS/MS analysis; format: ADME, organism-based; details: in vivo

With `CC1(C)C(=O)N(c2ccc(C#N)c(C(F)(F)F)c2)C(=O)N1CCNc1ccc(F)c2ncccc12` the half-life [1] was 2.2 h, the AUC(0-t) [2] was 3060 ng·h/mL and the Activity (CWR22R [3]) was “Dose-Dependent Effect”. The Activity (CWR22R [4]) was “Dose-Dependent Effect”, the Activity [5] was “Non-Toxic” and the MRT last [6] was 1.3 h. For the same molecule, the Activity [7] was “Active”, the Activity (CWR22R [8]) was “Active” and the Activity (CWR22R [9]) was 11.94%. The Activity [10] was “Active”, the Activity (CWR22R [11]) was “Active” and the Activity (CWR22R [12]) was 41.5%. The Activity [13] was “Non-Toxic”, the Activity (CWR22R [14]) was “Active” and the Activity [15] was “Dose-Dependent Effect”. The DC50 (Androgen receptor) was 2670 nM, the IC50 at 48 h [16] was greater than 100000 nM and the Activity (CWR22R [17]) was “Dose-Dependent Effect”. For the same molecule, the Activity [18] was “inactive”, the Activity (CWR22R [19]) was “Active” and the Activity (CWR22R [20]) was “Active”. For the same molecule, the Activity (CWR22R [21]) was 30.91%, the IC50 (CWR22R [22]) was 900 nM and the inhibition (CWR22R [23]) was “Dose-Dependent Effect”. For the same molecule, the Activity (CWR22R [24]) was “Active”, the Activity [25] was “Active” and the IC50 (LNCaP) was 1400 nM. The Activity (CWR22R [26]) was “Active”, the Activity (CWR22R [27]) was “Dose-Dependent Effect” and the MRT [28] was 4.1 h.
